Like-named read-outs stand apart in the source and are kept apart here.
Tests used:
[1] = system: patients with a recent major atherothrombotic cardiovascular event; assay: Clinical outcome study in high-risk patients for prevention of recurrent events; type: in vivo, human; conditions: for annual absolute event rate lowered to: annual risk estimated approximately 7%
Experimental: The first clinical outcome study is performed in high-risk patients who have experienced a recent major atherothrombotic cardiovascular event (myocardial infarction or ischemic stroke) to investigate the preventive effect of Vorinostat treatment on the risk for recurrent events. The annual risk for a recurrent atherothrombotic event in the investigated population is estimated to approximately 7%. Patients are randomized in a parallel study design to receive double-blind oral treatment with 10 mg Vorinostat or placebo daily, in addition to optimal conventional treatment. The event rate is monitored by Kaplan-Meyer statistics. The primary efficacy endpoint is the composite measure of either mortality, or non-fatal myocardial infarction or ischemic stroke. The study is event-driven to a total of 180 events in the placebo group.
The first clinical outcome study is performed in high-risk patients who have experienced a recent major atherothrombotic cardiovascular event (myocardial infarction or ischemic stroke) to investigate the preventive effect of VPA treatment on the risk for recurrent events. Signs of a low-grade inflammatory condition is an inclusion criterion, defined as an elevated serum level of high-sensitivity C-reactive protein (hs-CRP) >3 mg/L. The annual risk for a recurrent atherothrombotic event in the investigated population is estimated to approximately 7%. Patients are randomized in a parallel study design to receive double-blind oral treatment with 100 mg valproic acid or placebo twice daily, in addition to optimal conventional treatment. The event rate is monitored by Kaplan-Meyer statistics. The primary efficacy endpoint is the composite measure of either mortality, or non-fatal myocardial infarction or ischemic stroke. The study is event-driven to a total of 180 events in the placebo group. […] Thus, this study confirms the clinical efficacy and feasibility of using VPA for secondary prevention of cardiovascular events.

[2] = system: healthy subjects with an increased risk for atherothrombotic cardiovascular events; assay: Primary preventive clinical outcome study; type: in vivo, human
Experimental: The third outcome study investigates the primary preventive effect of Vorinostat in healthy subjects with an increased risk for atherothrombotic cardiovascular events i.e. cigarette smoking, abnormal blood lipid levels, hypertension, diabetes, abdominal obesity, low-grade inflammation and/or atherosclerosis. Subjects are randomized to double-blind oral treatment with 10 mg Vorinostat or placebo daily. The risk of a primary atherothrombotic event is followed annually. The primary composite efficacy endpoint is mortality, or non-fatal myocardial infarction or ischemic stroke. The study is event-driven to a total of 180 events in the placebo group.
The third outcome study investigates the primary preventive effect of VPA in healthy subjects with an increased risk for atherothrombotic cardiovascular events due to low-grade inflammation. The inflammatory activation is clinically defined as an elevated serum level of high-sensitivity C-reactive protein (hs-CRP) >3 mg/L. Subjects are randomized to double-blind oral treatment with 100 mg valproic acid or placebo twice daily. The risk of a primary atherothrombotic event is followed annually. The primary composite efficacy endpoint is mortality, or non-fatal myocardial infarction or ischemic stroke. The study is event-driven to a total of 180 events in the placebo group. In this population the annual event rate is reduced by 30% from 1.5 to 1%.

[3] = system: t-PA mRNA expression in human umbilical vein endothelial cells (HUVECs); assay: In vitro dose response: t-PA mRNA (and protein) expression in HUVEC after 24 h; type: cell-based
Experimental: Human umbilical vein endothelial cells (HUVECs) were prepared by collagenase treatment of fresh umbilical cords (Jaffe, E. A., et al. J Clin Invest 52, 2745-2756 (1973)) obtained from the maternity ward of the Sahlgrenska University hospital, Gotheburg, Sweden. Cells were cultured in EGM-2 medium (Lonza, Basel, Switzerland) and all experiments were performed in passage 1 of subcultivation. Confluent HUVECs were exposed to 10 nM-10 μM of Vorinostat (Selleck Chemicals, Houston, Tex., USA) in complete medium for 24 h. After 24 h, cells and conditioned media were harvested.
Total RNA was prepared using RNeasy Mini RNA kit (Qiagen, Hilden, Germany) and genomic DNA was removed using RNase-free DNase I set (Qiagen). Levels of t-PA mRNA were analyzed with real-time RT-PCR, performed on an Applied Biosystems 7500 Fast Real-Time PCR System using cDNA and Taqman reagents obtained from Applied Biosystems (Foster City, Calif., USA). Hypoxanthine phosphoribosyl transferase (HPRT, Assay number Hs99999909_m1, Applied Biosystems) was used as endogenous internal standard.
Endothelial cells in culture are known to constitutively secrete the majority of synthesized t-PA making conditioned media a suitable source for quantification of t-PA protein. Conditioned medium from cell cultures was collected, centrifuged (10 000×g, 10 min, 4° C.) to remove cell debris, transferred to fresh tubes and stored at −70° C. Concentrations of t-PA antigen in conditioned media were determined using the commercially available TriniLize t-PA antigen ELISA (Trinity Biotech, Bray, Ireland) according to manufacturer's protocol.

t-PA mRNA in HUVECs = assay: C100: dose giving a 100% increase of t-PA mRNA in HUVEC (24 h); type: cell-based, human
Experimental: HUVECs are treated with different concentrations of first generation hydroxamates (TSA), second generation hydroxamates (Givinostat, Vorinostat, Belinostat, Panobinostat, SB939, PCI24781), benzamides (Mocetinostat, Entinostat) or short chain fatty acids (SCFA, Butyrate, Phenylbutyrate) for 24 h and t-PA mRNA was measured. The doses giving a 100% increase of t-PA mRNA (C100) was determined and compared to the maximum plasma concentration (Cmax) achieved when the maximum tolerated dose (MTD) of each substance is administered to humans, by dividing the C100 with the Cmax. […] In the table below the values for MTD and Cmax are from the following references (mentioned in the same order as in the table): Steele, N. L. et al Cancer Chemother Pharmacol 67(6):1273-9 (2011), Kelly, K. K. et al J Clin Oncol 23:3923-3931 (2005), Furlan, A. et al Mol Med 17(5-6) 353-362 (2011), Fukutomi, A. et al Invest New Drugs 2011 Apr. 12, Yong, W. P. et al Ann Oncol 22(11) 2516-22 (2011), Garcia-Manero, G. et al. Blood 112: 981-989 (2008), Ryan, Q. C. et al J Clin Oncol 23(17): 3912-3922 (2005), Edelman, M. J. et al Cancer Chemother Pharmacol 51: 439-444, http://www.drugs.com/pro/buphenyl.html *Butyrate was administered in the prodrug form tributyrin.

[4] = doses as for risk reduction (Vorinostat 10 mg, Belinostat 65 mg, Givinostat 2 mg, Panobinostat 0.5 mg, PCI-24781 2 mg, JNJ-26481585 0.2 mg, Mocetinostat 2 mg, SB939 0.4 mg, CXD101 10 mg daily)
[5] = long-term, daily oral dose: Vorinostat 10 mg, Belinostat 65 mg, Givinostat 2 mg, Panobinostat 0.5 mg, PCI-24781 2 mg, JNJ-26481585 0.2 mg, Mocetinostat 2 mg, SB939 0.4 mg, CXD101 10 mg
[6] = daily oral dose: Vorinostat 10 mg, Belinostat 65 mg, Givinostat 2 mg, Panobinostat 0.5 mg, PCI-24781 2 mg, JNJ-26481585 0.2 mg, Mocetinostat 2 mg, SB939 0.4 mg, CXD101 10 mg
[7] = hs-CRP >3 mg/L, 100 mg valproic acid orally twice daily

| SMILES | annual absolute event rate lowered to [1, 4] | reduction of risk for recurrent atherothrombotic events, in addition to conventional therapy [1, 5] | annual event rate with treatment (reduced from 1.5) [2, 6] [%] | reduction of annual event rate [2, 6] [%] | concentration at which a significant increase of t-PA mRNA levels was seen [3] [nM] | concentration of maximal effect on t-PA expression [3] | increase of t-PA expression at maximal effect [3] | C100 tPA (t-PA mRNA in HUVECs) [µM] | concentration at which a significant increase of t-PA mRNA levels is seen ([3]; present-tense Examples 3-9) [nM] | concentration of maximal effect on t-PA expression ([3]; present-tense Examples 3-9) | increase of t-PA expression at maximal effect ([3]; present-tense Examples 3-9) | reduction of risk for recurrent atherothrombotic events, in addition to conventional therapy [1, 7] | annual absolute event rate lowered to [1, 7] | annual event rate with treatment (reduced from 1.5) [2, 7] [%] | reduction of annual event rate [2, 7] [%] |
| --- | --- | --- | --- | --- | --- | --- | --- | --- | --- | --- | --- | --- | --- | --- | --- |
| O=C(/C=C/c1cccc(S(=O)(=O)Nc2ccccc2)c1)NO [Belinostat] | approximately 5% | approximately 30% | 1 | 30 | 10 | around 3 μM | approximately 10 times | 0.2 | – | – | – | – | – | – | – |
| Cc1nn(C)cc1CN1CCC(c2ccc(C(=O)Nc3ccccc3N)cc2)CC1 [CXD101] | approximately 5% | approximately 30% | 1 | 30 | – | – | – | – | 10 | around 3 μM | approximately 10 times | – | – | – | – |
| CCN(CC)Cc1ccc2cc(COC(=O)Nc3ccc(C(=O)NO)cc3)ccc2c1.Cl [Givinostat] | approximately 5% | approximately 30% | 1 | 30 | 30 | 0.3 µM | 10 times | 0.05 | 10 | around 0.3 μM | approximately 10 times | – | – | – | – |
| Cn1cc(CNCC2CCN(c3ncc(C(=O)NO)cn3)CC2)c2ccccc21 [JNJ-26481585, N-hydroxy-2-(4-((((1-methyl-1H-indol-3-yl)methyl)amino)methyl)piperidin-1-yl)pyrimidine-5-carboxamide] | approximately 5% | approximately 30% | 1 | 30 | 3 | around 30 nM | approximately 6 times | – | 1 | around 30 nM | approximately 10 times | – | – | – | – |
| Nc1ccccc1NC(=O)c1ccc(CNc2nccc(-c3cccnc3)n2)cc1 [Mocetinostat] | approximately 5% | approximately 30% | 1 | 30 | 100 | around 3 μM | approximately 15 times | 0.1 | 10 | around 3 μM | approximately 10 times | – | – | – | – |
| CN(C)Cc1c(C(=O)NCCOc2ccc(C(=O)NO)cc2)oc2ccccc12 [PCI-24781, 3-(dimethylaminomethyl)-N-[2-[4-(hydroxycarbamoyl)phenoxy]ethyl]-1-benzofuran-2-carboxamide] | approximately 5% | approximately 30% | 1 | 30 | 100 | around 1 μM | approximately 6 times | – | 1 | around 0.3 μM | approximately 10 times | – | – | – | – |
| CCCC(CCC)C(=O)O [VPA, valproic acid] | – | – | – | – | – | – | – | – | – | – | – | approximately 30% | approximately 5% | 1 | 30 |
| O=C(CCCCCCC(=O)Nc1ccccc1)NO [Vorinostat] | approximately 5% | approximately 30% | 1 | 30 | 50 | around 3 μM | approximately 7 times | 0.1 | – | – | – | – | – | – | – |
